In PubChem BioAssay (NCI):
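Following 48 hours of exposure in 96-well plates, responses at five concentrations were used to interpolate endpoints linearly. The concentration for 50% growth inhibition is given as GI50. TGI: total growth inhibition.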

How the values were obtained:
Assay in all cases: NCI-60 cell line screen, 48 h
HCT-116 colon = system: HCT-116 colon
HT29 colon = system: HT29 colon
HL-60(TB) leukemia = system: HL-60(TB) leukemia
SK-MEL-2 melanoma = system: SK-MEL-2 melanoma
A549 NSCLC = system: A549 NSCLC
A498 renal = system: A498 renal
SF-539 CNS = system: SF-539 CNS
SF-295 CNS = system: SF-295 CNS
NCI-H226 lung = system: NCI-H226 lung
SNB-19 CNS = system: SNB-19 CNS

In the case of S=P1(N2CCCCC2)Oc2ccc3ccccc3c2-c2c(ccc3ccccc23)O1, the TGI (HCT-116 colon) is reported as > 100 µM, the TGI (HT29 colon) is reported as > 100 µM and the TGI (HL-60(TB) leukemia) is reported as > 100 µM. The TGI (SK-MEL-2 melanoma) was > 100 µM, the TGI (A549 NSCLC) was > 100 µM and the TGI (A498 renal) was > 100 µM. For the same compound, the TGI (SF-539 CNS) was > 100 µM, the TGI (SF-295 CNS) was > 100 µM and the TGI (NCI-H226 lung) was > 100 µM. The TGI (SNB-19 CNS) was > 100 µM.

Compound N=C(N)c1ccc(-c2ccc(-c3ccccc3)s2)cc1 has a GI50 (SK-MEL-2 melanoma) of 1.97 µM, a TGI (SK-MEL-2 melanoma) of 4.1 µM and a GI50 (A549 NSCLC) of 2.14 µM. It also gave a TGI (A549 NSCLC) of 4.73 µM, a GI50 (SF-539 CNS) of 1.63 µM and a TGI (SF-539 CNS) of 3 µM. It also gave a GI50 (NCI-H226 lung) of 3.01 µM and a TGI (NCI-H226 lung) of 14.6 µM.

Compound COc1cc(/C=C/c2cc(/C=C/c3ccc(O)c(OC)c3)nc(N)n2)ccc1O has a GI50 (HCT-116 colon) of 1.1 µM, a TGI (HCT-116 colon) of 2.39 µM and a GI50 (HT29 colon) of 0.314 µM. It also gave a TGI (HT29 colon) of 0.948 µM, a GI50 (HL-60(TB) leukemia) of 2.18 µM and a TGI (HL-60(TB) leukemia) of 6.17 µM. The GI50 (A549 NSCLC) was 2.22 µM, the TGI (A549 NSCLC) was 6.04 µM and the GI50 (A498 renal) was 1.51 µM. The TGI (A498 renal) was 3.26 µM, the GI50 (SF-539 CNS) was 2.05 µM and the TGI (SF-539 CNS) was 5.73 µM. The GI50 (SF-295 CNS) was 1.93 µM, the TGI (SF-295 CNS) was 4.54 µM and the GI50 (NCI-H226 lung) was 1.83 µM. For the same compound, the TGI (NCI-H226 lung) was 4.34 µM, the GI50 (SNB-19 CNS) was 1.81 µM and the TGI (SNB-19 CNS) was 7.95 µM.

C=C1C(=O)C[C@@]23CCC[C@@]12CC(OCOC)C3 (some centres undefined) gave a TGI (HCT-116 colon) of 6 µM, a TGI (HT29 colon) of 4.41 µM and a TGI (HL-60(TB) leukemia) of 4.76 µM. For the same compound, the TGI (SK-MEL-2 melanoma) was 11.2 µM, the TGI (A549 NSCLC) was 28.4 µM and the TGI (A498 renal) was 18.4 µM. For the same compound, the TGI (SF-539 CNS) was 9.5 µM, the TGI (SF-295 CNS) was 17.3 µM and the TGI (NCI-H226 lung) was 4.66 µM. For the same compound, the TGI (SNB-19 CNS) was 28.7 µM.

Compound Nc1nc(Cl)cc(OCC2(CO)CC(OCc3ccccc3)C2)n1 (centres undefined) has a GI50 (HCT-116 colon) of 64 µM, a GI50 (HT29 colon) of 33.9 µM and a GI50 (HL-60(TB) leukemia) of 40 µM. The GI50 (A549 NSCLC) was 43 µM, the GI50 (A498 renal) was 58.3 µM and the GI50 (SF-295 CNS) was 50.1 µM. For the same compound, the GI50 (NCI-H226 lung) was 74 µM and the GI50 (SNB-19 CNS) was 51.6 µM.

With O=[N+]([O-])c1ccccc1NC1c2ccccc2Oc2ccccc21 the GI50 (HCT-116 colon) was 4.08 µM, the TGI (HCT-116 colon) was > 100 µM and the GI50 (HT29 colon) was 3.83 µM. For the same compound, the TGI (HT29 colon) was > 100 µM, the GI50 (HL-60(TB) leukemia) was 2.8 µM and the TGI (HL-60(TB) leukemia) was 7.09 µM. For the same compound, the GI50 (SK-MEL-2 melanoma) was 8.43 µM, the TGI (SK-MEL-2 melanoma) was > 100 µM and the GI50 (A549 NSCLC) was 6.51 µM. For the same compound, the TGI (A549 NSCLC) was > 100 µM, the GI50 (A498 renal) was 5.82 µM and the TGI (A498 renal) was > 100 µM. For the same compound, the GI50 (SF-539 CNS) was 3.27 µM, the TGI (SF-539 CNS) was > 100 µM and the GI50 (SF-295 CNS) was 4.45 µM. The TGI (SF-295 CNS) was > 100 µM, the GI50 (NCI-H226 lung) was 5.91 µM and the TGI (NCI-H226 lung) was > 100 µM. For the same compound, the GI50 (SNB-19 CNS) was 4.35 µM and the TGI (SNB-19 CNS) was > 100 µM.

In the case of COC(=O)c1cccc(N[C@@H]2c3cc4c(cc3C(c3cc(OC)c(O)c(OC)c3)[C@H]3C(=O)OCC32)OCO4)c1 (some centres undefined), the TGI (HCT-116 colon) is reported as 21.9 µM, the TGI (HT29 colon) is reported as 16 µM and the TGI (HL-60(TB) leukemia) is reported as 1.1 µM. The TGI (SK-MEL-2 melanoma) was > 63 µM, the TGI (A549 NSCLC) was 3.25 µM and the TGI (A498 renal) was 3.46 µM. The TGI (SF-539 CNS) was 3.64 µM, the TGI (SF-295 CNS) was 5.96 µM and the TGI (NCI-H226 lung) was 3.6 µM. The TGI (SNB-19 CNS) was > 63.4 µM.

With Cc1cc(C)c2c(c1)CC1(Cc3c(C)ccc(C)c3C1=O)C2=O (centres undefined) the TGI (HL-60(TB) leukemia) was > 100 µM, the TGI (SK-MEL-2 melanoma) was > 100 µM and the TGI (A549 NSCLC) was > 100 µM. The TGI (A498 renal) was > 100 µM, the TGI (SF-539 CNS) was > 100 µM and the TGI (SF-295 CNS) was > 100 µM. For the same compound, the TGI (NCI-H226 lung) was > 100 µM and the TGI (SNB-19 CNS) was > 100 µM.

In the case of Cc1ccc([N+](=O)[O-])cc1S(=O)(=O)Nc1ccc(C2=NNC(c3ccccc3O)C2)cc1 (centres undefined), the TGI (HCT-116 colon) is reported as 60.8 µM, the TGI (HT29 colon) is reported as > 100 µM and the TGI (HL-60(TB) leukemia) is reported as 61.8 µM. The TGI (SK-MEL-2 melanoma) was 65.6 µM, the TGI (A549 NSCLC) was > 100 µM and the TGI (A498 renal) was 79.3 µM. For the same compound, the TGI (SF-539 CNS) was > 100 µM, the TGI (SF-295 CNS) was 90.9 µM and the TGI (NCI-H226 lung) was > 100 µM. The TGI (SNB-19 CNS) was > 100 µM.

In the case of CCCCCCCC/C=C\CCCCCCCC(=O)O, the TGI (HCT-116 colon) is reported as 217 µM, the TGI (HT29 colon) is reported as > 500 µM and the TGI (HL-60(TB) leukemia) is reported as 290 µM. For the same compound, the TGI (SK-MEL-2 melanoma) was > 281 µM, the TGI (A549 NSCLC) was 226 µM and the TGI (A498 renal) was > 500 µM. The TGI (SF-539 CNS) was 184 µM, the TGI (SF-295 CNS) was 176 µM and the TGI (NCI-H226 lung) was 227 µM. The TGI (SNB-19 CNS) was 252 µM.

In the case of CCN(CC)CCCNc1ncc(C)c2[nH]c3ccncc3c12, the TGI (HCT-116 colon) is reported as 30.3 µM, the TGI (HT29 colon) is reported as 26.2 µM and the TGI (HL-60(TB) leukemia) is reported as > 31.6 µM. The TGI (SK-MEL-2 melanoma) was 23.6 µM, the TGI (A549 NSCLC) was 22.7 µM and the TGI (A498 renal) was 40.4 µM. For the same compound, the TGI (SF-539 CNS) was 20.9 µM, the TGI (SF-295 CNS) was 29.7 µM and the TGI (NCI-H226 lung) was 20.3 µM. For the same compound, the TGI (SNB-19 CNS) was > 100 µM.

For N=c1c2c(=S)n(-c3ccccc3)c(=S)n(-c3ccccc3)c2nc(SCCCN2CCN(c3cccc(Cl)c3)CC2)n1-c1ccccc1, the TGI (HL-60(TB) leukemia) was > 100 µM, the TGI (SK-MEL-2 melanoma) was > 100 µM and the TGI (A498 renal) was > 100 µM. The TGI (SF-539 CNS) was > 100 µM, the TGI (SF-295 CNS) was > 100 µM and the TGI (NCI-H226 lung) was > 100 µM.

With O=C(O)CNc1ccc(C(=O)O)cc1 the TGI (HCT-116 colon) was > 100 µM, the TGI (HT29 colon) was > 100 µM and the TGI (HL-60(TB) leukemia) was > 100 µM. For the same compound, the TGI (SK-MEL-2 melanoma) was > 100 µM, the TGI (A549 NSCLC) was > 100 µM and the TGI (A498 renal) was > 100 µM. For the same compound, the TGI (SF-539 CNS) was > 100 µM, the TGI (SF-295 CNS) was > 100 µM and the TGI (NCI-H226 lung) was > 100 µM. The TGI (SNB-19 CNS) was > 100 µM.

For O=C(O)CS, the TGI (HCT-116 colon) was > 100 µM, the TGI (HT29 colon) was > 100 µM and the TGI (HL-60(TB) leukemia) was > 100 µM. For the same compound, the TGI (SK-MEL-2 melanoma) was > 100 µM, the TGI (A549 NSCLC) was > 100 µM and the TGI (SF-539 CNS) was > 100 µM. The TGI (SF-295 CNS) was > 100 µM, the TGI (NCI-H226 lung) was > 100 µM and the TGI (SNB-19 CNS) was > 100 µM.

CCNc1nnc(-c2nsc3ccccc23)s1 was tested, and the TGI (HCT-116 colon) was 75.2 µM, the TGI (HT29 colon) was 93.3 µM and the TGI (HL-60(TB) leukemia) was > 100 µM. The TGI (SK-MEL-2 melanoma) was > 100 µM, the TGI (A549 NSCLC) was > 100 µM and the TGI (SF-539 CNS) was > 100 µM. The TGI (SNB-19 CNS) was 45.6 µM.
